Measurements as given in patent publication US11739074B2, “Ras inhibitors” (Revolution Medicines, Inc., priority 2019, dated 2023).
Read-outs that look alike come from different tables or passages of the source.

Columns and labels:
Type in all cases: cell-based
AsPC-1 (K-Ras G12D) [1] = experiment: Potency assay: pERK in AsPC-1 cells; conditions: Homo sapiens
NCI-H358 (K-Ras G12C) = experiment: CellTiter-Glo cell viability assay, H358; conditions: Homo sapiens, NCI-H358, 120 h
Protocol: Determination of Cell Viability in RAS Mutant Cancer Cell Lines
Protocol: CellTiter-Glo® Cell Viability Assay
Note—The following protocol describes a procedure for monitoring cell viability of K-Ras mutant cancer cell lines in response to a compound of the invention. Other RAS isoforms may be employed, though the number of cells to be seeded will vary based on cell line used.
Test compounds (132.5 nL) were directly dispensed into the assay plates containing cells. […] On day 5, assay plates and their contents were equilibrated to room temperature for approximately 30 minutes. […] Luminescence was measured using the PerkinElmer Enspire. Data were normalized by the following: (Sample signal/Avg. DMSO)*100. The data were fit using a four-parameter logistic fit.

AsPC-1 (K-Ras G12D) [2] = experiment: CellTiter-Glo cell viability assay, AsPC-1; conditions: Homo sapiens, ASPC1, 120 h
Summary of the method: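 Luminescent viability readout on day 5, plates first brought to room temperature for ~30 min; compounds added straight to plated RAS-mutant cells. Values expressed as percent of mean DMSO signal, curves fitted with a four-parameter logistic model.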

[3] = ASPC1, AsPC-1 cells, K-Ras G12D, read-out: pERK EC50 (AsPC-1 KRAS G12D)
[4] = NCI-H358, K-Ras G12C, 5-day treatment, read-out: H358 Cell Viability IC50
[5] = AsPC-1, K-Ras G12D, 5-day treatment, read-out: AsPC-1 Cell Viability IC50
[6] = ASPC1, read-out: pERK EC50 (AsPC-1 KRAS G12D)
[7] = read-out: H358 Cell Viability IC50, NCI-H358, K-Ras G12C, 5-day treatment
[8] = read-out: AsPC-1 Cell Viability IC50, AsPC-1, K-Ras G12D, 5-day treatment

Row | SMILES | EC50 (AsPC-1 (K-Ras G12D) [1]; [3]) [nM] | IC50 (NCI-H358 (K-Ras G12C); [4]) [nM] | IC50 (AsPC-1 (K-Ras G12D) [2]; [5]) [nM] | EC50 (AsPC-1 (K-Ras G12D) [1]; [6]) [nM] | IC50 (NCI-H358 (K-Ras G12C); [7]) [nM] | IC50 (AsPC-1 (K-Ras G12D) [2]; [8]) [nM]
1 | CCn1c(-c2cccnc2[C@H](C)OC)c2c3cc(ccc31)-c1csc(n1)C[C@H](NC(=O)[C@H](C(C)C)N(C)C(=O)N1CCCN(C(=O)[C@H]3CN3)CC1)C(=O)N1CCC[C@H](N1)C(=O)OCC(C)(C)C2 [Compound 222] | < 5000 | < 10 | 100 to 1000 | – | – | –
2 | CCn1c(-c2cccnc2[C@H](C)OC)c2c3cc(ccc31)-c1cc(O)cc(c1)C[C@H](NC(=O)[C@H](C(C)C)N(C)C(=O)[C@@H]1CCN(C(=O)[C@H]3CN3)[C@@H]1C)C(=O)N1CCC[C@H](N1)C(=O)OCC(C)(C)C2 [Compound 207] | < 5000 | < 10 | 100 to 1000 | – | – | –
3 | CCn1c(-c2cccnc2[C@H](C)OC)c2c3cc(ccc31)-c1cc(O)cc(c1)C[C@H](NC(=O)[C@H](C1CCCC1)N1CC[C@@]3(CCN(C(=O)[C@H]4CN4)C3)C1=O)C(=O)N1CCC[C@H](N1)C(=O)OCC(C)(C)C2 [Compound 174] | < 5000 | < 10 | 100 to 1000 | – | – | –
4 | CCn1c(-c2cccnc2[C@H](C)OC)c2c3cc(ccc31)-c1cc(O)cc(c1)C[C@H](NC(=O)[C@H](C(C)C)N(C)C(=O)CN(C)C(=O)[C@@H]1CN1CCCOC)C(=O)N1CCC[C@H](N1)C(=O)OCC(C)(C)C2 (stereo partly drawn) [Compound 137] | – | – | – | < 5000 | < 10 | 100 to 1000
5 | CCn1c(-c2cccnc2[C@H](C)OC)c2c3cc(ccc31)-c1cc(O)cc(c1)C[C@H](NC(=O)[C@H](C1CCCC1)N(C)C(=O)CN(C)C(=O)[C@@H]1N[C@@H]1C1CC1)C(=O)N1CCC[C@H](N1)C(=O)OCC(C)(C)C2 [Compound 170] | < 5000 | 10 to 100 | 10 to 100 | – | – | –
6 | CCn1c(-c2cccnc2[C@H](C)OC)c2c3cc(ccc31)-c1cc(O)cc(c1)C[C@H](NC(=O)[C@H](C(C)C)N(C)C(=O)CN(C)C(=O)[C@H]1CN1C(C)C)C(=O)N1CCC[C@H](N1)C(=O)OCC(C)(C)C2 (stereo partly drawn) [Compound 142] | – | – | – | < 5000 | < 10 | 100 to 1000
7 | CCn1c(-c2cccnc2[C@H](C)OC)c2c3cc(ccc31)-c1csc(n1)C[C@H](NC(=O)[C@H](C(C)C)N(C)C(=O)N1CC[C@H](N(C)C(=O)[C@H]3CN3)C1)C(=O)N1CCC[C@H](N1)C(=O)OCC(C)(C)C2 [Compound 228] | < 5000 | 10 to 100 | 100 to 1000 | – | – | –
8 | CCn1c(-c2cccnc2[C@H](C)OC)c2c3cc(ccc31)-c1cc(O)cc(c1)C[C@H](NC(=O)[C@H](C1CCCC1)N(C)C(=O)CN(C)C(=O)[C@H]1[C@@H](C3CC3)N1CCCOC)C(=O)N1CCC[C@H](N1)C(=O)OCC(C)(C)C2 (stereo partly drawn) [Compound 317] | < 5000 | 10 to 100 | 10 to 100 | – | – | –
9 | CCn1c(-c2cccnc2[C@H](C)OC)c2c3cc(ccc31)-c1cc(O)cc(c1)C[C@H](NC(=O)[C@H](C(C)C)N(C)C(=O)[C@H]1CCN(S(=O)(=O)[C@@H]3CN3C)C1)C(=O)N1CCC[C@H](N1)C(=O)OCC(C)(C)C2 (single isomer, unassigned) [Compound 56] | < 5000 | 100 to 1000 | 1000 to 10000 | – | – | –
10 | CCn1c(-c2cccnc2[C@H](C)OC)c2c3cc(ccc31)-c1cc(O)cc(c1)C[C@H](NC(=O)[C@H](C(C)C)N(C)C(=O)CN(C)C(=O)[C@H]1CN1CC1(C)COC1)C(=O)N1CCC[C@H](N1)C(=O)OCC(C)(C)C2 (stereo partly drawn) [Compound 279] | – | – | – | < 5000 | < 10 | 100 to 1000
11 | CCn1c(-c2cccnc2[C@H](C)OC)c2c3cc(ccc31)-c1cc(cc(C(F)F)c1)C[C@H](NC(=O)[C@H](C1CCCC1)N(C)C(=O)CN(C)C(=O)[C@@H]1N[C@@H]1C1CC1)C(=O)N1CCC[C@H](N1)C(=O)OCC(C)(C)C2 [Compound 320] | < 5000 | 100 to 1000 | 100 to 1000 | – | – | –
12 | CCn1c(-c2cccnc2[C@H](C)OC)c2c3cc(ccc31)-c1cc(O)cc(c1)C[C@H](NC(=O)[C@H](C(C)C)N(C)C(=O)[C@@]1(C)CCCN1C(=O)[C@H]1CN1)C(=O)N1CCC[C@H](N1)C(=O)OCC(C)(C)C2 [Compound 239] | < 5000 | 10 to 100 | 100 to 1000 | – | – | –
13 | CCn1c(-c2cccnc2[C@H](C)OC)c2c3cc(ccc31)-c1csc(n1)C[C@H](NC(=O)[C@H](C(C)C)N(C)C(=O)N1CC[C@@H](N(C)C(=O)[C@H]3CN3)C1)C(=O)N1CCC[C@H](N1)C(=O)OCC(C)(C)C2 [Compound 226] | < 5000 | 10 to 100 | 1000 to 10000 | – | – | –
14 | CCn1c(-c2cnccc2COC)c2c3cc(ccc31)-c1cc(O)cc(c1)C[C@H](NC(=O)[C@H](C(C)C)N(C)C(=O)CN(C)C(=O)[C@@H]1N[C@H]1c1ccccc1)C(=O)N1CCC[C@H](N1)C(=O)OCC(C)(C)C2 [Compound 11] | – | – | – | < 5000 | 100 to 1000 | 1000 to 10000
15 | CCn1c(-c2cnccc2COC)c2c3cc(ccc31)-c1cc(O)cc(c1)C[C@H](NC(=O)[C@H](C(C)C)N(C)C(=O)CN(C)C(=O)[C@@H]1N[C@H]1c1ccc(OC)cc1)C(=O)N1CCC[C@H](N1)C(=O)OCC(C)(C)C2 [Compound 96] | – | – | – | < 5000 | 1000 to 10000 | 1000 to 10000
16 | CCn1c(-c2cc(N3CCN(C)CC3)cnc2[C@H](C)OC)c2c3cc(ccc31)-c1cc(O)cc(c1)C[C@H](NC(=O)[C@H](C1CCCC1)N(C)C(=O)CN(C)C(=O)[C@H]1CN1)C(=O)N1CCC[C@H](N1)C(=O)OCC(C)(C)C2 [Example 209, (2R)—N-(2-(((1S)-1-cyclopentyl-2-(((6^3S,4S)-1^1-ethyl-2^5-hydroxy-1^2-(2-((S)-1-methoxyethyl)-5-(4-methylpiperazin-1-yl)pyridin-3-yl)-10,10-dimethyl-5,7-dioxo-6^1,6^2,6^3,6^4,6^5,6^6-hexahydro-1^1H-8-oxa-1(5,3)-indola-6(1,3)-pyridazina-2(1,3)-benzenacycloundecaphane-4-yl)amino)-2-oxoethyl)(methyl)amino)-2-oxoethyl)-N-methylaziridine-2-carboxamide] | – | – | – | < 5000 | < 10 | < 10
17 | CCn1c(-c2cccnc2[C@H](C)OC)c2c3cc(ccc31)-c1cc(O)cc(c1)C[C@H](NC(=O)[C@H](C(C)C)N(C)C(=O)CN(C)C(=O)[C@H]1N[C@H]1C1CCC1)C(=O)N1CCC[C@H](N1)C(=O)OCC(C)(C)C2 [Compound 288] | – | – | – | < 5000 | 10 to 100 | 100 to 1000
18 | CCn1c(-c2cccnc2[C@H](C)OC)c2c3cc(ccc31)-c1cc(O)cc(c1)C[C@H](NC(=O)[C@H](C(C)C)N(C)C(=O)[C@H]1CCCN(C(=O)[C@@H]3CN3)C1)C(=O)N1CCC[C@H](N1)C(=O)OCC(C)(C)C2 [Compound 236] | < 5000 | < 10 | 1000 to 10000 | – | – | –
19 | CCn1c(-c2cccnc2[C@H](C)OC)c2c3cc(ccc31)-c1cc(O)cc(c1)C[C@H](NC(=O)[C@H](C1CCCC1)N(C)C(=O)CN(C)C(=O)[C@H]1CN1)C(=O)N1CCC[C@H](N1)C(=O)OCC(C)(C)C2 [Example 95, (2R)—N-(2-(((1S)-1-cyclopentyl-2-(((6^3S,4S)-1^1-ethyl-2^5-hydroxy-1^2-(2-((S)-1-methoxyethyl)pyridin-3-yl)-10,10-dimethyl-5,7-dioxo-6^1,6^2,6^3,6^4,6^5,6^6-hexahydro-1^1H-8-oxa-1(5,3)-indola-6(1,3)-pyridazina-2(1,3)-benzenacycloundecaphane-4-yl)amino)-2-oxoethyl)(methyl)amino)-2-oxoethyl)-N-methylaziridine-2-carboxamide] | – | – | – | < 5000 | < 10 | 10 to 100
20 | CCn1c(-c2cccnc2[C@H](C)OC)c2c3cc(ccc31)-c1cc(O)cc(c1)C[C@H](NC(=O)[C@H](C(C)C)N(C)C(=O)CN(C)C(=O)[C@@H]1N[C@H]1COC)C(=O)N1CCC[C@H](N1)C(=O)OCC(C)(C)C2 [Compound 85] | – | – | – | < 5000 | 10 to 100 | 1000 to 10000
21 | CC[C@H]1N[C@H]1C(=O)N(C)CC(=O)N(C)[C@H](C(=O)N[C@H]1Cc2cc(O)cc(c2)-c2ccc3c(c2)c(c(-c2cccnc2[C@H](C)OC)n3CC)CC(C)(C)COC(=O)[C@@H]2CCCN(N2)C1=O)C(C)C [Compound 262] | – | – | – | < 5000 | 10 to 100 | 100 to 1000
